A word on the EC50: it is the concentration needed to bring the measured effect to its halfway point. A lower EC50 goes with greater potency.

The target in this assay is Gamma-aminobutyric acid type B receptor subunit 1/2 (UniProt O88871+Q9Z0U4). The assay can be described thus: Binding Assay. How it is done: The samples were incubated at room temperature for 60 minutes on a shaker. The incubation was stopped by rapid vacuum filtration over glass-fiber filter plates (UniFilter-96 well, GF/B membrane plates, PerkinElmer) using a 96-well plate harvester (TOMTEK Harvester). The UniFilter plate was washed five times with ice-cold wash buffer (50 mM Tris-HCl buffer, pH 7.7, 10 mM MgCl2, and 100 mM NaCl. After filtration the plate was dried for 90 minutes at 55° C. The plates were closed on the bottom with black sealing membranes, and liquid scintillation cocktail (35 μL, Betaplate Scint, PerkinElmer) was added to each well. After sealing the top of the plate, an additional incubation step of 90 minutes at room temperature followed before measuring the plate. The amount of membrane-bound [35S]GTPgS was measured using a 96-well plate reader (Microbeta , PerkinElmer).
Sequence of Gamma-aminobutyric acid type B receptor subunit 1/2 (Q9Z0U4 whole entry): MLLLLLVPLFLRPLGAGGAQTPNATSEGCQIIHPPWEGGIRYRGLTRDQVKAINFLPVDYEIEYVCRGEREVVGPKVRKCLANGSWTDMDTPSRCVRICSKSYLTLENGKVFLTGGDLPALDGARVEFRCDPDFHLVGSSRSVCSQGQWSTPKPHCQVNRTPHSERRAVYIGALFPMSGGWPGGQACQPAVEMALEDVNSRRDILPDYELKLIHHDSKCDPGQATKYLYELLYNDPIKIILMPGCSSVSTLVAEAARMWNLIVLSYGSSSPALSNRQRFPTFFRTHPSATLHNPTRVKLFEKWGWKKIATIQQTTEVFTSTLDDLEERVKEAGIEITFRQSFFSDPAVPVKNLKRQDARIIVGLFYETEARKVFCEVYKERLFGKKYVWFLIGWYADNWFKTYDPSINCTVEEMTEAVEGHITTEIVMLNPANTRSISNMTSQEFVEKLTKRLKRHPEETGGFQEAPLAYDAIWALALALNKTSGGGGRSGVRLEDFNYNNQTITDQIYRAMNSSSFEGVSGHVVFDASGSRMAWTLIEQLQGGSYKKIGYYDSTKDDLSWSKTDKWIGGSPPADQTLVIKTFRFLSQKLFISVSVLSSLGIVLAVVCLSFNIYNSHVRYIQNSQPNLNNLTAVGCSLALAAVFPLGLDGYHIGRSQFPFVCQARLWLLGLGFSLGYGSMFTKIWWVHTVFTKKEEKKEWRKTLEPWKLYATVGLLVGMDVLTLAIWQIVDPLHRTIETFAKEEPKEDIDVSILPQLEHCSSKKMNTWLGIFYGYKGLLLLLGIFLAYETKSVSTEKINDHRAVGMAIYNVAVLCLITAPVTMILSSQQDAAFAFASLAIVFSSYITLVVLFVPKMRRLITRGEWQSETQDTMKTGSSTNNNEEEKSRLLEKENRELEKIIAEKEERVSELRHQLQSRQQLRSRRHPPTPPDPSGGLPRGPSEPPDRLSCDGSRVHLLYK
Sequence of Gamma-aminobutyric acid type B receptor subunit 1/2 (O88871 whole entry): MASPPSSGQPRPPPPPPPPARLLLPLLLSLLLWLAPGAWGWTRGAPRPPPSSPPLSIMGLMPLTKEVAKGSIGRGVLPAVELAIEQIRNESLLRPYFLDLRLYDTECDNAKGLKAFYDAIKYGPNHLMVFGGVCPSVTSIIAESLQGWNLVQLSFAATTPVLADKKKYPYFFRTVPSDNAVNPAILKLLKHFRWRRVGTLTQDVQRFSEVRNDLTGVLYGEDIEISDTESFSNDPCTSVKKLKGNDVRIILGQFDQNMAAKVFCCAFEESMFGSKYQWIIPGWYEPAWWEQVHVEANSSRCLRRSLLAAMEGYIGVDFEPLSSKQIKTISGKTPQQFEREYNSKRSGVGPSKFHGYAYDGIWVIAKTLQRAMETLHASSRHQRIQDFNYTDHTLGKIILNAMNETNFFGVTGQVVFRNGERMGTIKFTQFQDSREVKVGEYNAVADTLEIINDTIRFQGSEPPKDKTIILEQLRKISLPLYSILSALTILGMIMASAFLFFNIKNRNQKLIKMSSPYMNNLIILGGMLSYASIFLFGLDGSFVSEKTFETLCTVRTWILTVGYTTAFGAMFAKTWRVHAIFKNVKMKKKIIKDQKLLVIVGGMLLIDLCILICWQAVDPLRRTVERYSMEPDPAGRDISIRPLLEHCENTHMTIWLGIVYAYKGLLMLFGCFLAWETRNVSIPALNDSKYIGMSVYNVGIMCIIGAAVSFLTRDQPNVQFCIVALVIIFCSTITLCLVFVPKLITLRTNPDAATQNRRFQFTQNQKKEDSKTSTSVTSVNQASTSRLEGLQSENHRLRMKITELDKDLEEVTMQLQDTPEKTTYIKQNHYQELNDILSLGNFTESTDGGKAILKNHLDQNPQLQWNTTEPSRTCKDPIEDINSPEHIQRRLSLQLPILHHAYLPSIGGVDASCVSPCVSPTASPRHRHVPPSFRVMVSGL
In the case of `COc1ccc(OC)c(-c2nn(Cc3ccc(Cl)cc3)c(=O)c3c(C(C)C)noc23)c1` [US10556914, Example 13], the EC50 came to 3.54 µM.

For `COc1c(NC(C)=O)cccc1-c1nn(C(C)c2ccc(Cl)cc2)c(=O)c2c(C)noc12` (stereo not drawn) [US10556914, Example 33], the EC50 was above 10 µM.

As for `CC(=O)Nc1cccc(-c2nn(Cc3ccc(Cl)cc3)c(=O)c3c(C(C)C)noc23)c1` [US10556914, Example 96], the EC50 is 2.59 µM.

Values taken from BindingDB's records for patent US10556914 (ABBVIE INC.; ABBVIE DEUTSCHLAND GMBH & CO. KG, 2020).
